Reference: patent US6103728A, “Quinazolines” (Sugen, Inc., priority 1997, dated 2000)

Tests used:
Assay type in all cases: cell-based
IGF-1 Receptor = target: T1, IGF-1 Receptor (Homo sapiens, UniProt P08069); test: Cellular IGF-1 Receptor ELISA (3T3/IGF-1R cells); details: 20 nM IGF-1, serum-free, 2 h drug incubation
T1 construct: expressed in transfected cells; host or cells: 3T3 cells (3T3/IGF-1R)

EGFR = target: T2, EGFR (Homo sapiens, UniProt P00533); test: EGFR Whole Cell Kinase Assay (EGFR-3T3 assay, ELISA); details: NIH3T3 clone C7 over-expressing human EGF receptor; 25 nM EGF
T2 construct: expressed in transfected cells; host or cells: NIH3T3 clone C7 (EGFR/C7)
T2 sequence (P00533 25-1210): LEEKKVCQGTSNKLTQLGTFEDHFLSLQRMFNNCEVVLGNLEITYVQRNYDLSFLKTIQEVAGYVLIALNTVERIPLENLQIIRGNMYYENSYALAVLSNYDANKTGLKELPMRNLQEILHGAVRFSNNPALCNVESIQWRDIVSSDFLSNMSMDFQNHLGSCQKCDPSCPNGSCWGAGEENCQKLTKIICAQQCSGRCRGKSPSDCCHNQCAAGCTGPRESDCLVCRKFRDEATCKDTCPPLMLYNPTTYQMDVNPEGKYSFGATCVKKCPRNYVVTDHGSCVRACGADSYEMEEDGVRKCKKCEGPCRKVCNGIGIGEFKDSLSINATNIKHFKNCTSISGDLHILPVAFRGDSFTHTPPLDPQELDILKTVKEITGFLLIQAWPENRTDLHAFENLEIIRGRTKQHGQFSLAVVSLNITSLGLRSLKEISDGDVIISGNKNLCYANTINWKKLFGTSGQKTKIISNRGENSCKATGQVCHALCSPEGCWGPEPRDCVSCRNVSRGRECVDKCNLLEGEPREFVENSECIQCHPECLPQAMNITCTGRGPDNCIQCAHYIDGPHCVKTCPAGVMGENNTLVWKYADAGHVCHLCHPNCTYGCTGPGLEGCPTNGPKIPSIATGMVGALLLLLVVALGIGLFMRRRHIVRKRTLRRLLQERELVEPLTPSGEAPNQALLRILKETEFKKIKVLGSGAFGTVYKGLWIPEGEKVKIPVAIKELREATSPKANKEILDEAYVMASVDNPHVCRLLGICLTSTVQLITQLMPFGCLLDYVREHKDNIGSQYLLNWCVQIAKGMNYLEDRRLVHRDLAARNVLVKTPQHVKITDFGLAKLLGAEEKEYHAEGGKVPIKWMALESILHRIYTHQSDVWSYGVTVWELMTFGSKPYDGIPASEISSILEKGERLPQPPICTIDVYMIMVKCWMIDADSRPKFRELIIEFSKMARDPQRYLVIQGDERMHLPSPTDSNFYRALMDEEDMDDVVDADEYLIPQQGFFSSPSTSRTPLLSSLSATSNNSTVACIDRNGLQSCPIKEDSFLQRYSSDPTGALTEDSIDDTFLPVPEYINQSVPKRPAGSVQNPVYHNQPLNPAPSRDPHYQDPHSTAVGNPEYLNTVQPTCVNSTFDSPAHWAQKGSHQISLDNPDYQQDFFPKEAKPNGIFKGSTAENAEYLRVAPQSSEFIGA
From the text: (§1) The following examples illustrates the ability of the exemplary compounds to inhibit receptor tyrosine kinases, such as HER2 and/or EGFR. The following target cells were used for cellular kinase assays: NIH3T3 clone C7 (Honegger et al., supra) engineered to over-express human EGF receptor; NIH3T3 cells engineered to over-express a chimeric receptor containing the EGFR extracellular domain and the HER2 intracellular kinase domain; the human mammary carcinoma line BT474 (ATCC ATB2) expressing HER2; and the human glioblastoma line U1242 that expresses PDGFR-beta. Growth assays were carried out using human mammary epithelial SKBR3 (ATCC HTB30) cells (SKBR3 cells over-express HER2), SKOV3 (ATCC HTB77) human ovarian cancer cell line (SKOV3 cells also over-express HER2), A431 cells (A431 cells over-express EGFR) MCF7 human breast carcinoma cells, MCF7 cells overexpressing the HER2 kinase (MCF7-HER2), NIH3T3 cells, and NIH3T3 cells overexpressing the HER2 kinase (3T3-HER2.
EGFR Whole Cell Kinase Assay
EGFR kinase activity (EGFR-3T3 assay) in whole cells was measured as described below:
A. Coat ELISA plates (Corning, 96 well, Cat. #25805-96) with 05-101 antibody at 0.5 μg per well in PBS, 150 μl final volume/well, and store overnight at 4° C. Coated plates are good for up to 10 days when stored at 4° C. […]

PDGFR-beta = target: T3, PDGFR-beta (Homo sapiens, UniProt P09619); test: PDGF-R Cellular Assay (ELISA); details: human glioblastoma line U1242; PDGF-BB 100 ng/ml
T3 construct: the human glioblastoma line U1242 that expresses PDGFR-beta; endogenous in cells; host or cells: U1242 (U1242 MG) human glioblastoma cells
T3 sequence (P09619 33-1106): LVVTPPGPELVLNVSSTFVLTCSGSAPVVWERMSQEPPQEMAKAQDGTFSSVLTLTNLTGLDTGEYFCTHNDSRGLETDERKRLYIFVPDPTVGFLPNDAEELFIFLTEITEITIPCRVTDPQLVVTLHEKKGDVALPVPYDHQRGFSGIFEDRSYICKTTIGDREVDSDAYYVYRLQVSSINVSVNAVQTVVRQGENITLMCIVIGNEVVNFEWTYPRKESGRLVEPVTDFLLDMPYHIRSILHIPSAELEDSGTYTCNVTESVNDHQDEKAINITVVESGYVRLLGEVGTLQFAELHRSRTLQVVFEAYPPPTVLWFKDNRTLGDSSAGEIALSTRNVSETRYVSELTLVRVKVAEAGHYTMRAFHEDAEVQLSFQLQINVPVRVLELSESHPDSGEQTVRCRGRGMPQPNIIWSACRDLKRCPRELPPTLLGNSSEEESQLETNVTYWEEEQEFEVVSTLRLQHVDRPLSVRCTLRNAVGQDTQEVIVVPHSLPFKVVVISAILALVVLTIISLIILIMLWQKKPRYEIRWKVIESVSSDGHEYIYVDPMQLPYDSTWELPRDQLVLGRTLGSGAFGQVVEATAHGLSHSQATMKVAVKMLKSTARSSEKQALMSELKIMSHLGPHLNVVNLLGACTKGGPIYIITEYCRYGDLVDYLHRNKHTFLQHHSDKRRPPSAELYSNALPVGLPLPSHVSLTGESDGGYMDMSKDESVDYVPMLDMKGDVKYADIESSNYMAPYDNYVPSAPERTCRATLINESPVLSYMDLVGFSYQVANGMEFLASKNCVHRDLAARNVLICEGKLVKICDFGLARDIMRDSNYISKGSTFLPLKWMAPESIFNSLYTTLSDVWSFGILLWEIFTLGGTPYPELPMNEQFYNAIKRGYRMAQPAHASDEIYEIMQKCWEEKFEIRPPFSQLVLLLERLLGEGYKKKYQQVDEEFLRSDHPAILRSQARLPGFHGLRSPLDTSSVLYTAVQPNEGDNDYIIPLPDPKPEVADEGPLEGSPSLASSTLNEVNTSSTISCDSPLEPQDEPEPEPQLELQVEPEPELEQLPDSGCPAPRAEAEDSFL
From the text: as §1, with “(3T3-HER2. […]” for “(3T3-HER2.”

HER2 = target: T4, HER2 (Homo sapiens, UniProt P04626); test: HER2-ELISA, whole cell HER2 activity in BT474 cells; details: BT474 human breast tumor cells; serum-free; 2 h drug preincubation
T4 construct: a human breast tumor cell line which expresses high levels of HER2 kinase; endogenous in cells; host or cells: BT-474 human breast tumor cells
T4 sequence (P04626 23-1255): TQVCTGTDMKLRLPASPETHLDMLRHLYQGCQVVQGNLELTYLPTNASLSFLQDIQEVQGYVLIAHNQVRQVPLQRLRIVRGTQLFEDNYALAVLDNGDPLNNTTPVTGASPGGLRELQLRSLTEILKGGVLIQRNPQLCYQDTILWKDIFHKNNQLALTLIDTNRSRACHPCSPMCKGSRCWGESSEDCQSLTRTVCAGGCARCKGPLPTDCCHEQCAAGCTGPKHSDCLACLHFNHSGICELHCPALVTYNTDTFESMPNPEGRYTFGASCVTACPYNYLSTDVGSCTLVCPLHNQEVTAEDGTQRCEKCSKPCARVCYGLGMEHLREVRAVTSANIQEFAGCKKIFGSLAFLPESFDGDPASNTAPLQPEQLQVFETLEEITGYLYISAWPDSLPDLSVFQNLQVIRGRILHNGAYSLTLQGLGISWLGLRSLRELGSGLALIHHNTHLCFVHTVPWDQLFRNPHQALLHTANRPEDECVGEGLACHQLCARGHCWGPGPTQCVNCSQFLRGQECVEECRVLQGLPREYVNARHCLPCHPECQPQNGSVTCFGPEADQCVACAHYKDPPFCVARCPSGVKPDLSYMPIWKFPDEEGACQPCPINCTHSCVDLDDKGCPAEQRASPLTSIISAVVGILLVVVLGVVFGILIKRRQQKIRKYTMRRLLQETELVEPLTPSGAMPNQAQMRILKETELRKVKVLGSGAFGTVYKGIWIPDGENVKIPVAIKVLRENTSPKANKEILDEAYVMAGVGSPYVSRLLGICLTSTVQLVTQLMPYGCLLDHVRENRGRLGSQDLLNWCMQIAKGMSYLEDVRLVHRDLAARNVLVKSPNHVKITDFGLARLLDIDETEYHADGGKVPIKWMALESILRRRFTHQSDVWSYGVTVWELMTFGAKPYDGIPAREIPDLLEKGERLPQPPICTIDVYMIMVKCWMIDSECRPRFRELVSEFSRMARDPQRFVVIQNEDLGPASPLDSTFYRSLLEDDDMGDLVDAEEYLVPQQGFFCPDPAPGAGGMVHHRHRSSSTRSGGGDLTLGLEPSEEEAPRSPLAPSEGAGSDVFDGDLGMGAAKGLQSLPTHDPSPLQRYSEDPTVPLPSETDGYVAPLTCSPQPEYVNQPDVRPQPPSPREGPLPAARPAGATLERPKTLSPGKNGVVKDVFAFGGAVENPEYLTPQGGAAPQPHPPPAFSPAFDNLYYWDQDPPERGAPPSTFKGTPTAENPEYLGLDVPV
From the text: as §1
HER2-BT474 assays measuring whole cell HER2 activity was carried out as described below:
1) The cell line used in this assay is BT-474 (ATCC HBT20), a human breast tumor cell line which expresses high levels of HER2 kinase.
2) BT-474 is grown in an incubator with 5% CO2 at 37° C. The growth media is RPMI+10% FBS+GMS-G (Gibco supplement)+Glutamine.
3) A monoclonal anti-HER2 antibody is used in ELISA. […]

[1] = test system: chimeric receptor containing the EGFR extracellular domain and the HER2 intracellular kinase domain; test: EGFR-HER2 chimeric receptor whole cell kinase assay in NIH3T3 cells (ELISA); details: NIH3T3 cells with EGFR/HER2 chimeric receptor; 100 nM EGF; 2 h drug incubation; read-out: ELISA DATA HER2 - (3T3)
From the text: as §1
EGFR-HER2 Chimeric Recetor
HER2 kinase activity (EGFR-3T3) in whole cells was measured as described below:
The materials and reagents are identical to these used in example 1, the EGFR whole cell kinase assay.
A. Coat ELISA plates (Corning, 96 well, Cat. #25805-96) with 05-101 antibody at 0.5 µg per well in PBS, 100 μl final volume/well, and store overnight at 4° C. […]

T1 sequence (P08069 31-1367): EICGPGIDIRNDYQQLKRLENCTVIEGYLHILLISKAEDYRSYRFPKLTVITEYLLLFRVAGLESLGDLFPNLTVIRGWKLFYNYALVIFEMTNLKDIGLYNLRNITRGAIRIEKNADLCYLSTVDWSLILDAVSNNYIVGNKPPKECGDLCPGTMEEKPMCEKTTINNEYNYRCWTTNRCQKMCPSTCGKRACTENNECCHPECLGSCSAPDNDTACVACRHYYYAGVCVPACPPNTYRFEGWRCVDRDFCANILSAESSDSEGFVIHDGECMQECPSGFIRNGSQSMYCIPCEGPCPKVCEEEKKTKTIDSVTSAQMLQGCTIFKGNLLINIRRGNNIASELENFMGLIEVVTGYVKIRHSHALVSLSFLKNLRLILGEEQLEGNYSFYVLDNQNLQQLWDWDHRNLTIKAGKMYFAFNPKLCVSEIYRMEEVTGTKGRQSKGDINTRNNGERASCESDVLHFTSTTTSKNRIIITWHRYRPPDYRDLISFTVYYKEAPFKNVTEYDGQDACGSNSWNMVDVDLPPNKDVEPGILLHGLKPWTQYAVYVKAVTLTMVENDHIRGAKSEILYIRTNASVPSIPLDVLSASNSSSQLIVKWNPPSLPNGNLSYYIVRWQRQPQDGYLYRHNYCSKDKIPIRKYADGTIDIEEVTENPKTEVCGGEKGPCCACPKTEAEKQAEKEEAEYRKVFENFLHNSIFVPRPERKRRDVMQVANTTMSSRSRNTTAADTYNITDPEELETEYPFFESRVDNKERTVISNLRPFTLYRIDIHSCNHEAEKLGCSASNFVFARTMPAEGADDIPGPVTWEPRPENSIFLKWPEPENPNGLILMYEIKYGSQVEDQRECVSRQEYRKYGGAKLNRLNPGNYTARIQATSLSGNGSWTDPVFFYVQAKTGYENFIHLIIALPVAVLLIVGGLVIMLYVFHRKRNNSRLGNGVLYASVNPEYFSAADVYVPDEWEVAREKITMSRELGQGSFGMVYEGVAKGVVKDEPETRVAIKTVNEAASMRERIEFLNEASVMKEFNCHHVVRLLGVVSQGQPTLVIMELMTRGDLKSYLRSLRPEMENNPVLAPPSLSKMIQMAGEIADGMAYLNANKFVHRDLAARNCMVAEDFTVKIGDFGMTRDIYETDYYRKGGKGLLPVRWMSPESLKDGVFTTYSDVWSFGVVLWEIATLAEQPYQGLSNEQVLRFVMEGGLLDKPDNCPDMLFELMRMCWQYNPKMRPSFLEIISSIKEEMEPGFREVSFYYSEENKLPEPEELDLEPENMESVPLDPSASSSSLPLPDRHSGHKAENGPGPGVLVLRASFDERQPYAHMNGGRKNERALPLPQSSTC

IC50 (IGF-1 Receptor): > 50 µM
IC50 (EGFR): > 100 µM
IC50 (PDGFR-beta): > 100 µM
IC50 (HER2): > 100 µM
IC50 [1]: > 50 µM
SMILES: COC(=O)C(c1cccc(Br)c1)c1ncnc2cc(OC)c(OC)cc12 (centres unmarked) [Compound D002]
